Assay results reported in patent US20220087996A1, “Histone acetylase p300 inhibitor and use thereof” (HINOVA PHARMACEUTICALS INC., priority 2018, published 2022).
Read-outs that look alike come from different tables or passages of the source.

What was measured:
MAVER-1 = assay: Inhibition of proliferation of MAVER-1 cells; format: cell-based; conditions: Homo sapiens, Maver1; Lymphoma cell line MAVER-1; read-out: IC50 against MAVER-1
Method: (§1) 1) CWR22RV1 cells were subcultured in cell culture medium, and the cells in good growth condition were seeded in a 96-well plate, 80 μL for each well, and the cell number in each well was 1500. The plate was incubated overnight in a 37° C., 5% CO2 cell incubator. 2) The drug was prepared as 30 mM stock solution with dimethyl sulfoxide (DMSO). Prior to use, the stock solution was diluted 3 times with DMSO, and then further diluted as 3-fold gradient to obtain 9 concentration gradients. Then, each concentration of compound was diluted 200 times with the culture solution (ensuring that the DMSO concentration in the culture system was 0.1%), and two replicate wells were set for each concentration. 20 μL of diluted compound solution was added to the cell culture well (with final concentrations of 10 μM, 3.3 μM. 1.1 μM . . . ), and the plate was gently shaken to mix. In addition, 3 negative control wells containing only cells and 3 blank control wells containing only culture medium were included (6 wells were each added 20 μL DMSO diluted 200 times with culture medium). 2. Result detection: (1) After culturing for 6 days, 10 μL CCK-8 was added to each well, and the plate was continually cultured in a 37° C., 5% CO2 cell incubator for 2.5 h. (2) The absorbance (OD value) was detected at 450 nm using a multifunctional microplate reader. (3) The data were analyzed by Dose-response-inhibition equation in the software GraphPad Prism6, and the IC50 value was obtained.
(§2) Using the same method as Experimental example 2, CWR22RV1 cells were replaced with tumor cells in Table 3, and the IC50 (nM) of the compound according to the present invention against the activity of these tumor cells was tested and calculated.

KARPAS-422 = assay: Inhibition of proliferation of KARPAS-422 cells; format: cell-based; conditions: Homo sapiens; Lymphoma cell line KARPAS-422; read-out: IC50 against KARPAS-422
Method: as §1, §2

MT-2 = assay: Inhibition of proliferation of MT-2 cells; format: cell-based; conditions: Homo sapiens, MT2; Leukemia cell line MT-2; read-out: IC50 against MT-2
Method: as §1, §2

EVSA-T = assay: Inhibition of proliferation of EVSA-T cells; format: cell-based; conditions: Homo sapiens; Breast cancer cell line EVSA-T; read-out: IC50 against EVSA-T
Method: as §1, §2

HCC1428 = assay: Inhibition of proliferation of HCC1428 cells; format: cell-based; conditions: Homo sapiens; Breast cancer cell line HCC1428; read-out: IC50 against HCC1428
Method: as §1, §2

MM.1S = assay: Inhibition of proliferation of MM.1S cells; format: cell-based; conditions: Homo sapiens, MM1.S; Multiple myeloma cell line MM.1S; read-out: IC50 against MM.1S
Method: as §1, §2

MM.1R = assay: Inhibition of proliferation of MM.1R cells; format: cell-based; conditions: Lymphoma cell line MM.1R; read-out: IC50 against MM.1R
Method: as §1, §2

Z-138 = assay: Inhibition of proliferation of Z-138 cells; format: cell-based; conditions: Homo sapiens; Lymphoma cell line Z-138; read-out: IC50 against Z-138
Method: as §1, §2

MCF-7 = assay: Inhibition of proliferation of MCF-7 cells; format: cell-based; conditions: Homo sapiens, MCF7; Breast cancer cell line MCF-7; read-out: IC50 against MCF-7
Method: as §1, §2

KMS-12-PE = assay: Inhibition of proliferation of KMS-12-PE cells; format: cell-based; conditions: Homo sapiens; Lymphoma cell line KMS-12-PE; read-out: IC50 against KMS-12-PE
Method: as §1, §2

TALL-1 = assay: Inhibition of proliferation of TALL-1 cells; format: cell-based; conditions: Homo sapiens; Leukemia cell line TALL-1; read-out: IC50 against TALL-1
Method: as §1, §2

MDA-MB-453 = assay: Inhibition of proliferation of MDA-MB-453 cells; format: cell-based; conditions: Homo sapiens; Breast cancer cell line MDA-MB-453; read-out: IC50 against MDA-MB-453
Method: as §1, §2

Pfeiffer = assay: Inhibition of proliferation of Pfeiffer cells; format: cell-based; conditions: Homo sapiens; Lymphoma cell line Pfeiffer; read-out: IC50 against Pfeiffer
Method: as §1, §2

ATN-1 = assay: Inhibition of proliferation of ATN-1 cells; format: cell-based; conditions: Homo sapiens; Leukemia cell line ATN-1; read-out: IC50 against ATN-1
Method: as §1, §2

CWR22RV1 cells = assay: Compound in combination with CDK4/6 inhibitor palbociclib on proliferation of CWR22RV1 cells; format: cell-based, human; conditions: for IC50: Homo sapiens, read-out: IC50 against the activity of CWR22RV1 cells
Method: The IC50 values (nM) of the compound according to the present invention, palbociclib, and the combination of the compound according to the present invention and palbociclib against CWR22RV1 cell proliferation were tested and calculated, and the detailed procedures were as follows:
1) CWR22RV1 cells were subcultured in cell culture medium, and the cells in good growth condition were seeded in a 96-well plate, 60 μL for each well, and the cell number in each well was 2000. The plate was incubated overnight in a 37° C., 5% CO2 cell incubator. 2) The drug was prepared as 10 mM stock solution with dimethyl sulfoxide (DMSO). Prior to use, the stock solution was diluted 3 times with DMSO, and then further diluted as 3-fold gradient to obtain 9 concentration gradients. Then, each concentration of compound was diluted 200 times with the culture solution (ensuring that the DMSO concentration in the culture system was 0.1%), and two replicate wells were set for each concentration. 20 μL of diluted compound solution was added to the cell culture well (with final concentrations of 10 μM, 3.3 μM, 1.1 μM . . . ). Palbociclib was diluted with culture medium to 500 nM, 150 nM, 50 nM, 5 nM, and 20 μL diluted compound solution was added to the corresponding cell culture wells (with a final concentration of 100 nM, 30 nM, 10 nM, 1 nM). The plate was gently shaken to mix. In addition, 3 negative control wells containing only cells and 3 blank control wells containing only culture medium were included (6 wells were each added 20 μL DMSO diluted 200 times with culture medium).
(1) After culturing for 6 days, 10 μL CCK-8 was added to each well, and the plate was continually cultured in a 37° C., 5% CO2 cell incubator for 2.5 h. (2) The absorbance (OD value) was detected at 450 nm using a multifunctional microplate reader. (3) The data were analyzed by Dose-response-inhibition equation in the software GraphPad Prism6, and the IC50 value was obtained.

MOLM-16 = assay: Inhibition of proliferation of MOLM-16 cells; format: cell-based; conditions: MOLM16; Leukemia cell line MOLM-16; read-out: IC50 against MOLM-16
Method: as §1, §2

KMS-11 = assay: Inhibition of proliferation of KMS-11 cells; format: cell-based; conditions: Homo sapiens; Multiple myeloma cell line KMS-11; read-out: IC50 against KMS-11
Method: as §1, §2

Row | SMILES | IC50 (MAVER-1) [nM] | IC50 (KARPAS-422) [nM] | IC50 (MT-2) [nM] | IC50 (EVSA-T) [nM] | IC50 (HCC1428) [nM] | IC50 (MM.1S) [nM] | IC50 (MM.1R) [nM] | IC50 (Z-138) [nM] | IC50 (MCF-7) [nM] | IC50 (KMS-12-PE) [nM] | IC50 (TALL-1) [nM] | IC50 (MDA-MB-453) [nM] | IC50 (Pfeiffer) [nM] | IC50 (ATN-1) [nM] | IC50 (MOLM-16) [nM] | IC50 (KMS-11) [nM] | further results
1 | CNC(=O)Nc1ccc2c(c1)CC[C@@]21OC(=O)N(CC(=O)N2C(C)CC[C@H]2c2cc(F)c(F)c(F)c2)C1=O (stereo in doubt) [Example 205, 1-((R)-3′-(2-((2S,5R)-2-(3,4,5-trifluorophenyl)-5-methylpyrrolidin-1-yl)-2-oxoethyl)-2′,4′-dioxo-2,3-dihydrospiro[indene-1,5′-oxazolidine]-5-yl)-3-methylurea] | ≤ 500 | ≤ 500 | 500 to 2000 | 500 to 2000 | ≤ 500 | 500 to 2000 | ≤ 500 | ≤ 500 | ≤ 500 | 500 to 2000 | ≤ 500 | ≤ 500 | ≤ 500 | ≤ 500 | ≤ 500 | ≤ 500 | IC50 (CWR22RV1 cells; CWR22Rv1, in combination with 1 nM palbociclib): 130 nM; IC50 (CWR22RV1 cells; CWR22Rv1, in combination with 10 nM palbociclib): 110 nM; IC50 (CWR22RV1 cells; CWR22Rv1, in combination with 30 nM palbociclib): 40 nM; IC50 (CWR22RV1 cells; CWR22Rv1, in combination with 100 nM palbociclib): < 1 nM; IC50 (CWR22RV1 cells; CWR22Rv1, single agent): 120 nM; inhibitory activity on CWR22RV1 cells when combined with palbociclib, versus either agent alone (CWR22RV1 cells; combination with CDK4/6 inhibitor palbociclib): much higher
2 | CNC(=O)Nc1ccc2c(c1)CC[C@@]21OC(=O)N(CC(=O)N2[C@@H](C)CC[C@H]2c2ccc(F)c(F)c2)C1=O [Example 201] | ≤ 500 | ≤ 500 | 500 to 2000 | 500 to 2000 | ≤ 500 | 500 to 2000 | ≤ 500 | ≤ 500 | ≤ 500 | 500 to 2000 | ≤ 500 | ≤ 500 | ≤ 500 | ≤ 500 | ≤ 500 | ≤ 500 | –
3 | CNC(=O)Nc1cc2c(cc1F)[C@@]1(CC2)OC(=O)N(CC(=O)N2[C@@H](C)CC[C@H]2c2ccc(F)c(F)c2)C1=O [Example 389, 1-((R)-3′-(2-((2S,5S)-2-(3,4-difluorophenyl)-5-methylpyrrolidin-1-yl)-2-oxoethyl)-6-fluoro-2′,4′-dioxo-2,3-dihydrospiro[indene-1,5′-oxazolidine]-5-yl)-3-methylurea] | ≤ 500 | ≤ 500 | ≤ 500 | 500 to 2000 | ≤ 500 | 500 to 2000 | ≤ 500 | ≤ 500 | ≤ 500 | 500 to 2000 | ≤ 500 | ≤ 500 | ≤ 500 | ≤ 500 | ≤ 500 | ≤ 500 | –
